Data reported in patent US8937084B2, “Nitrogen containing morphinan derivatives and the use thereof” (Purdue Pharma L.P., priority 2012, dated 2015).

How the values were obtained:
[1] = molecular target: recombinant human kappa opioid receptor (κ) (Homo sapiens (Human), UniProt P41145); assay: κ-opioid receptor radioligand dose-displacement binding assay ([3H]-U69,593)
Experimental: κ-Opioid Receptor Binding Assay Procedures: Membranes from HEK-293 cells, CHO or U-2 OS cells expressing the recombinant human kappa opioid receptor (κ) (cloned in house) were prepared by lysing cells in ice cold hypotonic buffer (2.5 mM MgCl2, 50 mM HEPES, pH 7.4) (10 mL/10 cm dish) followed by homogenization with a tissue grinder/Teflon pestle. Membranes were collected by centrifugation at 30,000×g for 15 min at 4° C. and pellets were resuspended in hypotonic buffer to a final concentration of 1-3 mg/mL. Protein concentrations were determined using the BioRad protein assay reagent with bovine serum albumen as standard. Aliquots of κ receptor membranes were stored at −80° C.
Radioligand dose displacement assays used 0.4 nM [^3H]-U69,593 (GE Healthcare, Piscataway, N.J.; 40 Ci/mmole) with 15 μg membrane protein (recombinant κ opioid receptor expressed in HEK 293 cells; in-house prep) in a final volume of 200 μl binding buffer (5% DMSO, 50 mM Trizma base, pH 7.4). Non-specific binding was determined in the presence of 10 μM unlabeled naloxone or U69,593. All reactions were performed in 96-well polypropylene plates for 1 hour at a temperature of about 25° C. Binding reactions were terminated by rapid filtration onto 96-well Unifilter GF/C filter plates (Perkin Elmer, Shelton, Conn.) presoaked in 0.5% polyethylenimine (Sigma). Harvesting was performed using a 96-well tissue harvester (Perkin Elmer, Shelton, Conn.) followed by five filtration washes with 200 μl ice-cold binding buffer. Filter plates were subsequently dried at 50° C. for 1-2 hours. Fifty μl/well scintillation cocktail (Perkin Elmer, Shelton, Conn.) was added and plates were counted in a Packard Top-Count for 1 min/well.
(§1) In TABLE 1, binding affinity of certain Compounds of the Invention to the μ-, δ- and κ-opioid receptors was determined as described above.

[2] = molecular target: T1, μ-opioid receptor (Homo sapiens (Human), UniProt P35372); assay: μ-opioid receptor [35S]GTPγS functional assay, HEK-293 or CHO cells; format: biochemical; conditions: for EC50: GTPγS; for Emax: relative to DAMGO
Experimental: (§2) μ-Opioid Receptor Functional Assay Procedures: [^35S]GTPγS functional assays were conducted using freshly thawed μ-receptor membranes prepared in-house from a cell line expressing recombinant μ opioid receptor in a HEK-293, CHO or U-2 OS cell background, or purchased from a commercial source (Perkin Elmer, Shelton, Conn.; or DiscovRx, Fremont, Calif.). Assay reactions were prepared by sequentially adding the following reagents to binding buffer (100 mM NaCl, 10 mM MgCl2, 20 mM HEPES, pH 7.4) on ice (final concentrations indicated): membrane protein (0.026 mg/mL), saponin ([…]), GDP ([…]) and [^35S]GTPγS (0.20 nM; Perkin Elmer, Shelton, Conn.). The prepared membrane solution (190 μl/well) was transferred to 96-shallow well polypropylene plates containing 10 μl of 20× concentrated stock solutions of the agonist [D-Ala^2, N-methyl-Phe^4 Gly-ol^5]-enkephalin (DAMGO) prepared in dimethyl sulfoxide (DMSO). Plates were incubated for 30 min at about 25° C. with shaking. Reactions were terminated by rapid filtration onto 96-well Unifilter GF/B filter plates (Perkin Elmer, Shelton, Conn.) using a 96-well tissue harvester (Perkin Elmer, Shelton, Conn.) followed by three filtration washes with 200 μl of ice-cold wash buffer (10 mM NaH2PO4, 10 mM Na2HPO4, pH 7.4). Filter plates were subsequently dried at 50° C. for 2-3 hours. BetaScint scintillation cocktail (Perkin Elmer, Shelton, Conn.) was added (50 μl/well) and plates were counted using a Packard Top-Count for 1 min/well. Data were analyzed using the sigmoidal dose-response curve fitting functions in GraphPad PRISM v. 3.0, or an in-house function for non-linear, sigmoidal dose-response curve-fitting.
(§3) μ-Opioid Receptor Functional Data: μ GTP EC50 is the concentration of a compound providing 50% of the maximal response for the compound at a μ-opioid receptor.
(§4) μ GTP Emax (%) is the maximal effect elicited by a compound relative to the effect elicited by DAMGO, a standard μ agonist. Generally, the μ GTP Emax (%) value measures the efficacy of a compound to treat or prevent pain or other Conditions.
(§5) In TABLE 2, activity response of certain Compounds of the Invention to the μ-, δ- and κ-opioid receptors was determined as described above for functional assays using HEK-293 or CHO cells.

[3] = molecular target: T2, κ opioid receptor (Homo sapiens (Human), UniProt P41145); assay: κ-opioid receptor [35S]GTPγS functional assay, HEK-293 or CHO cells; format: biochemical; conditions: for EC50: GTPγS; for Emax: relative to U69,593
Experimental: (§6) κ-Opioid Receptor Functional Assay Procedures: Functional [^35S]GTPγS binding assays were conducted as follows. κ opioid receptor membrane solution was prepared by sequentially adding final concentrations of 0.026 μg/μl κ membrane protein (in-house), 10 μg/mL saponin, 3 μM GDP and 0.20 nM [^35S]GTPγS to binding buffer (100 mM NaCl, 10 mM MgCl2, 20 mM HEPES, pH 7.4) on ice. The prepared membrane solution (190 μl/well) was transferred to 96-shallow well polypropylene plates containing 10 μl of 20× concentrated stock solutions of agonist prepared in DMSO. Plates were incubated for 30 min at a temperature of about 25° C. with shaking. Reactions were terminated by rapid filtration onto 96-well Unifilter GF/B filter plates (Perkin Elmer, Shelton, Conn.) using a 96-well tissue harvester (Packard) and followed by three filtration washes with 200 μl ice-cold binding buffer (10 mM NaH2PO4, 10 mM Na2HPO4, pH 7.4). Filter plates were subsequently dried at 50° C. for 2-3 hours. Fifty μl/well scintillation cocktail (Perkin Elmer, Shelton, Conn.) was added and plates were counted in a Packard Top-Count for 1 min/well.
(§7) κ-Oploid Receptor Functional Data: κ GTP EC50 is the concentration of a compound providing 50% of the maximal response for the compound at a K receptor.
(§8) κ GTP Emax (%) is the maximal effect elicited by a compound relative to the effect elicited by U69,593.
as §5

[4] = molecular target: T1, μ-opioid receptor; assay: μ-opioid receptor radioligand dose-displacement binding assay ([3H]-diprenorphine)
Experimental: μ-Opioid Receptor Binding Assay Procedures: Radioligand dose-displacement binding assays for μ-opioid receptors used 0.3 nM [^3H]-diprenorphine (Perkin Elmer, Shelton, Conn.), with […] membrane protein/well in a final volume of 500 μl binding buffer (10 mM MgCl2, 1 mM EDTA, 5% DMSO, 50 mM HEPES, pH 7.4). Reactions were carried out in the absence or presence of increasing concentrations of unlabeled naloxone. All reactions were conducted in 96-deep well polypropylene plates for 2 hours at room temperature. Binding reactions were terminated by rapid filtration onto 96-well Unifilter GF/C filter plates (Perkin Elmer, Shelton, Conn.), presoaked in 0.5% polyethylenimine using a 96-well tissue harvester (Perkin Elmer, Shelton, Conn.) followed by performing three filtration washes with 500 μl of ice-cold binding buffer. Filter plates were subsequently dried at 50° C. for 2-3 hours. BetaScint scintillation cocktail (Perkin Elmer, Shelton, Conn.) was added (50 μl/well), and plates were counted using a Packard Top-Count for 1 min/well. The data were analyzed using the one-site competition curve fitting functions in GraphPad PRISM™ v. 3.0 or higher (San Diego, Calif.), or an in-house function for one-site competition curve-fitting.
as §1

[5] = molecular target: T1, μ-opioid receptor; assay: μ-opioid receptor [35S]GTPγS functional assay, U-2 OS cells; format: biochemical; conditions: for EC50: GTPγS; for Emax: relative to DAMGO
Experimental: as §2, §3, §4
(§9) The following TABLE 3 provides results on the activity response of certain Compounds of the Invention at the μ- and κ-opioid receptors determined as described above using U-2 OS cells.

[6] = molecular target: T2, κ opioid receptor; assay: κ-opioid receptor [35S]GTPγS functional assay, U-2 OS cells; format: biochemical; conditions: for EC50: GTPγS; for Emax: relative to U69,593
Experimental: as §6, §7, §8, §9

Structure (SMILES) | Ki [1] [nM] | EC50 [2] [nM] | Emax [2] [%] | EC50 [3] [nM] | Emax [3] [%] | Ki [4] [nM] | EC50 [5] [nM] | Emax [5] [%] | EC50 [6] [nM] | Emax [6] [%]
COc1ccc(CN2CC[C@]34CCN(CC5CC5)[C@H](Cc5ccc(OC)cc53)[C@@H]4C2)cc1 [Compound 9, (4aS,5R,10bR)-13-(cyclopropylmethyl)-9-methoxy-3-(4-methoxybenzyl)-2,3,4,4a,5,6-hexahydro-1H-5,10b-(epiminoethano)benzo[f]isoquinoline] | 204 ± 48.6 | 732 ± 70.1 | 89 | 1990 ± 339 | 46.7 | – | – | – | – | –
O=C1C[C@]23CCN(CC4CC4)[C@H](Cc4ccc(O)cc42)C3=CN1Cc1ccc(O)cc1 [Compound 6, (5R,10bR)-13-(cyclopropylmethyl)-9-hydroxy-3-(4-hydroxybenzyl)-5,6-dihydro-1H-5,10b-(epiminoethano)benzo[f]isoquinolin-2(3H)-one] | 1.27 ± 0.19 | 57.5 ± 15.5 | 28 | 30.6 ± 6.75 | 41.7 | 22.8 ± 8.32 | – | – | – | –
O=C(O)CN1CC[C@]23CCN(CC4CC4)[C@H](Cc4ccc(O)cc42)[C@@H]3C1 [Compound 15, 2-((4aS,5R,10bR)-13-(cyclopropylmethyl)-9-hydroxy-4,4-a,5,6-tetrahydro-1H-5,10b-(epiminoethano)benzo[f]isoquinolin-3(2H)-yl)acetic acid] | 2.52 ± 0.97 | 28.6 ± 9.31 | 53.3 | 55 ± 18.9 | 73.3 | – | 20.8 ± 0.89 | 27 ± 3 | 5.44 ± 0.39 | 108 ± 4.7
NC(=O)CN1CC[C@]23CCN(CC4CC4)[C@H](Cc4ccc(O)cc42)[C@@H]3C1 [Compound 11, 2-((4aS,5R,10bR)-13-(cyclopropylmethyl)-9-hydroxy-4,4-a,5,6-tetrahydro-1H-5,10b-(epiminoethano)benzo[f]isoquinolin-3(2H)-yl)acetamide] | 0.26 | 2.44 ± 0.76 | 87.2 | 5.25 ± 1.09 | 63 | – | 2.41 ± 0.36 | 39.3 ± 3.28 | 0.92 ± 0.15 | 102 ± 2.33
Oc1ccc(CN2CC[C@]34CCN(CC5CC5)[C@H](Cc5ccc(O)cc53)[C@@H]4C2)cc1 [Compound 12, (4aS,5R,10bR)-13-(cyclopropylmethyl)-3-(4-hydroxybenzyl)-2,3,4,4a,5,6-hexahydro-1H-5,10b-(epiminoethano)benzo[f]isoquinolin-9-ol] | 0.98 ± 0.25 | 6.87 ± 0.84 | 58 | 20.8 ± 2.53 | 54.3 | – | 7.11 ± 2.99 | 47 ± 8.14 | 6.51 ± 1.03 | 110 ± 2.73
COc1ccc2c(c1)[C@@]13CCNC[C@H]1[C@@H](C2)N(CC1CC1)CC3 [Compound 10, (4aS,5R,10bR)-13-(cyclopropylmethyl)-9-methoxy-2,3,4,4a,5,6-hexahydro-1H-5,10b-(epiminoethano)benzo[f]isoquinoline] | 37 ± 7.96 | 2180 ± 394 | 66.7 | 2180 ± 562 | 71.3 | – | – | – | – | –
COc1ccc(CN2C=C3[C@H]4Cc5ccc(OC)cc5[C@@]3(CCN4CC3CC3)CC2=O)cc1 [Compound 2, (5R,10bR)-13-(cyclopropylmethyl)-9-methoxy-3-(4-methoxybenzyl)-5,6-dihydro-1H-5,10b-(epiminoethano)benzo[f]isoquinolin-2(3H)-one] | – | 268 ± 44 | 95.3 | 714 ± 256 | 68.8 | – | – | – | – | –
COc1ccc2c(c1)[C@]13CCN(CC4CC4)[C@H](C2)[C@@H]1CNC(=O)C3 [Compound 3, (4aS,5R,10bS)-13-(cyclopropylmethyl)-9-methoxy-4,4-a,5,6-tetrahydro-1H-5,10b-(epiminoethano)benzo[f]isoquinolin-2(3H)-one] | 5.84 ± 0.59 | 856 ± 48.7 | 62.7 | 435 ± 74 | 84 | – | – | – | – | –
C[C@H](N)C(=O)N1CC[C@]23CCN(CC4CC4)[C@H](Cc4ccc(O)cc42)[C@@H]3C1 [Compound 14, (S)-2-amino-1-((4aS,5R,10bS)-13-(cyclopropylmethyl)-9-hydroxy-4,4-a,5,6-tetrahydro-1H-5,10b-(epiminoethano)benzo[f]isoquinolin-3(2H)-yl)propan-1-one] | 0.09 ± 0.02 | 4.62 ± 1.55 | 82.7 | 1.98 ± 0.51 | 86 | – | 9.82 ± 1.96 | 35.3 ± 4.18 | 0.16 ± 0.025 | 104 ± 3.61
